From paper PMC7801736 (ACS infectious diseases, 2019)
Converted amounts (≈) assume the structure as drawn. Where two headings read alike, the source gives them in different places.

Experiments:
[1] = molecular target: InhA; details: cited from earlier work
[2] = test system: M. tuberculosis strain fgd1::tn; experiment: microbe, parasite or virus in culture; assay type: cell-based; details: for MIC shift, fgd1::tn strain: fgd1::tn vs H37Rv; for MIC: Mycobacterium tuberculosis, read-out: MIC (µM) fgd1::tn
[3] = test system: M. tuberculosis H37Rv; experiment: Griess assay for NO· quantification, H37Rv; assay type: cell-based, Mycobacterium tuberculosis; details: for NO· production (supernatant nitrite concentration), 20 µM compound / NO· production (supernatant nitrite concentration), 100 µM compound: 2 days
[4] = test system: M. tuberculosis fgd1::tn; experiment: Griess assay for NO· quantification, fgd1::tn; assay type: cell-based, Mycobacterium tuberculosis; details: F420H2 cofactor deficiency; 20 or 100 µM
[5] = test system: M. tuberculosis strain ddn::tn; experiment: microbe, parasite or virus in culture; assay type: cell-based; details: Mycobacterium tuberculosis, read-out: MIC (µM) ddn::tn
[6] = in vitro; assay type: cell-based; details: African green monkey
[7] = molecular target: purified M. tuberculosis InhA (Mycobacterium tuberculosis, UniProt P9WGR1); experiment: biochemical
[8] = test system: M. tuberculosis H37Rv; assay type: cell-based, Mycobacterium tuberculosis
[9] = test system: M. tuberculosis fatty acid biosynthesis; assay type: cell-based, Mycobacterium tuberculosis
[10] = test system: M. tuberculosis streptomycin-sensitive (ss18b) strain; assay type: cell-based, Mycobacterium tuberculosis; details: streptomycin-starved nonreplicating model; 7 days treatment
[11] = test system: M. tuberculosis H37Rv; details: for time of treatment after which intrabacterial metabolite was detectable: H37Rv, 20 µM JSF-2164
[12] = test system: M. tuberculosis fgd1::tn; details: 20 µM JSF-2164
[13] = read-out: % InhA inhibition at 50 µM with 1% CMC Tween-20, 50 µM compound, 1% CMC Tween-20

Sequence of purified M. tuberculosis InhA (P9WGR1 whole entry, looked up): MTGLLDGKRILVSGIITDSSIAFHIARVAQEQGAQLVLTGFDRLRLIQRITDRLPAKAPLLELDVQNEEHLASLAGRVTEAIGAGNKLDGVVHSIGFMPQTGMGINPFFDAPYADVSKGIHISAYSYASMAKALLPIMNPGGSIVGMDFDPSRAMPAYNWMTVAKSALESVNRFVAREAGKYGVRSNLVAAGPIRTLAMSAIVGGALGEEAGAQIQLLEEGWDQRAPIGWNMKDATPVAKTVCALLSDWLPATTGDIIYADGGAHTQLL

Compound | MIC shift, fgd1::tn strain [2] | NO· production (supernatant nitrite concentration), 20 µM compound ([3]; 20 µM exposure) | NO· production (supernatant nitrite concentration), 100 µM compound ([3]; 100 µM exposure) | NO· production in fgd1::tn strain [4] | MIC [2] | MIC [5] | inhibition at 50 µM [7, 13] | time of treatment after which intrabacterial metabolite was detectable [11] | time of treatment after which intrabacterial metabolite was discernible [12] | also measured
CCCCCCc1ccc(Oc2ccccc2C)c(O)c1 [PT70] |  |  |  |  |  |  |  |  |  | Ki [1]: 0.0078 µM; residence time [1]: 24 min
O=[N+]([O-])c1cn2c(n1)OC[C@@H](OCc1ccc(OC(F)(F)F)cc1)C2 [pretomanid] | > 500 fold | 9.8 µM | 17 µM | abolished |  |  |  |  |  | NO· release (ratio of nitrite concentration to compound dose), 20 µM compound ([3]; 20 µM exposure, initial 2 days): 49%; NO· release (ratio of nitrite concentration to compound dose), 100 µM compound ([3]; 100 µM exposure, initial 2 days): 17%
COc1cccc(Nc2ccc([N+](=O)[O-])c3nonc23)c1 [JSF-2164, N-(3-methoxyphenyl)-7-nitrobenzo[c][1,2,5]oxadiazol-4-amine] | > 20 fold | 0.84 µM | 6.7 µM | abolished | > 200 µM | 8 µM (≈ 2.29 µg/mL) | 44 ± 1% |  |  | CC50 [6]: 44 to 87 µM; IC50 versus purified InhA relative to MIC against the H37Rv strain ([7]; IC50 larger than MIC): ca. 5 fold; IC50 ([7]; InhA IC50 (µM), without Tween-20, mean ± standard error): 51 µM; IC50 ([7]; InhA IC50 with Tween-20, Tween-20 at 1% of its CMC in enzymatic buffer): 65 ± 16 µM; inhibition at 50 µM ([7]; read-out: InhA Inhibition at 50 µM Cmpd, 50 µM compound, commercial material, mean ± standard error): ≥ 50%; inhibition at 50 µM ([7]; read-out: InhA inhibition at 50 µM compound, synthetic material, 50 µM compound, […]): 44%; bactericidal classification (MBC within 4-fold of MIC) [8]: not formally bactericidal; reduction in M. tuberculosis colony-forming units/mL ([8]; 16× MIC, over 7 days, H37Rv): ca. 1 log10; effect on MAMEs and FAMEs (TLC) [9]: did not exhibit a pattern similar to that for INH; in vitro efficacy versus ss18b strain [10]: exhibited in vitro efficacy; time at which intrabacterial compound was degraded to a negligible level ([11]; Mycobacterium tuberculosis): ≥ 4 h
COc1cccc(Nc2ccc3nonc3c2N)c1 [JSF-3617, N5-(3-methoxyphenyl)benzo[c][1,2,5]oxadiazole-4,5-diamine] |  |  |  |  | 125 µM (≈ 32 µg/mL) | 250 µM (≈ 64.1 µg/mL) | 77 ± 0.74% | 30 min | 4 h | 
COc1cccc(Nc2ccc(N)c3nonc23)c1 [JSF-3616, N4-(3-methoxyphenyl)-benzo[c][1,2,5]oxadiazole-4,7-diamine] |  |  |  |  | 32 µM (≈ 8.2 µg/mL) | 32 µM (≈ 8.2 µg/mL) | 46 ± 2.9% | 30 min | 4 h | 
NNC(=O)c1ccncc1 [isoniazid, reference compound] |  |  |  |  | 0.078 µM (≈ 0.0107 µg/mL) | 0.078 µM (≈ 0.0107 µg/mL) |  |  |  | 
